Experimental data from patent US6043241A, “Ketoacid endothelin antagonists” (Warner-Lambert Company, priority 1998, dated 2000).
Where a SMILES comes first, the peptide text is derived from it. [ ]: non-standard residue; d: D form.

How the values were obtained:
early cerebral vasospasm [1] = settings: in vivo; cited from earlier work
pulmonary hypertension = settings: rat hypoxia model; cited from earlier work
[2] = system: ET-1-induced changes in gastric mucosal hemodynamics; settings: in vivo; cited from earlier work
acute renal ischemia = settings: in vivo; cited from earlier work
chronic heart failure = settings: patients with chronic heart failure; cited from earlier work
human ETB R = target: T1, human ETB R (Homo sapiens, UniProt P24530); assay: Competition radioligand binding assay, [125I]-ET-1, CHO-K1 cells expressing recombinant human ETB R (HERBA B); settings: CHO-K1 cell membranes, 40 pM [125I]-ET-1, 2 hours at 37° C
T1 construct: expressed in transfected cells; host or cells: CHO-K1 cells (membranes)
T1 sequence (P24530 27-442): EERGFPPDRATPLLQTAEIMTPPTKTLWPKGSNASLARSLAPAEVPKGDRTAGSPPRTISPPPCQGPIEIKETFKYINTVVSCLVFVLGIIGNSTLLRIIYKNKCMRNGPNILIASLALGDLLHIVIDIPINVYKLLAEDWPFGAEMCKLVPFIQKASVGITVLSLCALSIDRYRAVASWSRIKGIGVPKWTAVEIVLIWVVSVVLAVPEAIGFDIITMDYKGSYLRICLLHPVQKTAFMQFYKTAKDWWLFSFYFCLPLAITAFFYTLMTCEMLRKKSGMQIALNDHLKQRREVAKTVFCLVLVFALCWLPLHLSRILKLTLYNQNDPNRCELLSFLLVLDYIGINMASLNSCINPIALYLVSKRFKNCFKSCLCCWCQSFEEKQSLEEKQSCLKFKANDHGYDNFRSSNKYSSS
Experimental: (§1) The following cultured cells were used in binding experiments: CHO-K1 cells expressing recombinant human ETB R (HERBA B), or Ltk^- cells expressing human ETA R (HERBA A). […] Membranes were prepared from cultured cells by lysing cells in cold lysis buffer (5 mM HEPES, 2 mM EDTA, pH 7.4) and homogenizing with a Dounce "A" homogenizer. All of the homogenates were centrifuged at 30,000×g for 20 minutes at 4° C. Membrane pellets were resuspended in cold buffer containing 20 mM Tris, 2 mM EDTA, 200 μM Pefablock, 10 μM phosphoramidon, 10 μM leupeptin, and 1 μM pepstatin (pH 7.4) and frozen at -80° C. until use. Radioligand and competing ligands were prepared in binding buffer containing 20 mM Tris, 2 mM EDTA, and 0.1% BSA.
(§2) The assay was terminated by filtration over Whatman GF/B filters that were presoaked with 50 mM Tris, pH 7.4, containing 0.2% BSA and 100 μM bacitracin. […] binding was defined as total binding minus nonspecific binding.

human ETA R = target: T2, human ETA R (Homo sapiens, UniProt P25101); assay: Competition radioligand binding assay, [125I]-ET-1, Ltk- cells expressing human ETA R (HERBA A); settings: Ltk- cell membranes, 40 pM [125I]-ET-1, 2 hours at 37° C
T2 construct: expressed in transfected cells; host or cells: Ltk- cells (membranes)
T2 sequence (P25101 21-427): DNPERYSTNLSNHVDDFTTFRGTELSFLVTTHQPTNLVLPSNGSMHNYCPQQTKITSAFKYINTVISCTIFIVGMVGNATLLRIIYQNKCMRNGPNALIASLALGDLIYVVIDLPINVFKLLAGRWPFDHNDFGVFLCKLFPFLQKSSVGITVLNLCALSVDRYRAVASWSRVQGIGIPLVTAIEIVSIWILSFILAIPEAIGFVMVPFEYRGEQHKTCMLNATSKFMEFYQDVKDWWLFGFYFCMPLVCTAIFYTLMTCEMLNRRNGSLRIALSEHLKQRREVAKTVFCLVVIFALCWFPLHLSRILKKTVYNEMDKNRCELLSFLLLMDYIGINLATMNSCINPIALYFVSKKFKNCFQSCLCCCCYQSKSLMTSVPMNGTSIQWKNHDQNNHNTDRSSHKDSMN
Experimental: as §1, §2

prostate smooth muscle = settings: in vivo; cited from earlier work
[3] = system: middle cerebral artery occlusion; settings: cats, IV; cited from earlier work
early cerebral vasospasm [4] = settings: rat SAH; cited from earlier work
neointima formation = settings: rats, carotid artery balloon angioplasty; cited from earlier work
[5] = system: basilar artery vasoconstriction; settings: canine two-hemorrhage model of SAH, after 7 days; cited from earlier work
small intestinal mucosa = settings: rats, local intra-arterial; cited from earlier work
liver = settings: cited from earlier work
[6] = system: isolated cerebral arterioles; settings: cited from earlier work

Question: What does the source list for `CC(C)C[C@@H]1NC(=O)[C@@H](C(C)C)NC(=O)[C@@H]2CCCN2C(=O)[C@@H](CC(=O)O)NC(=O)[C@@H](Cc2c[nH]c3ccccc23)NC1=O` [BQ-123] (cyclo(L[dW][dD]P[dV]))?
Answer: early cerebral vasospasm following SAH (early cerebral vasospasm [1]): prevent early cerebral vasospasm; increase in pulmonary vascular resistance and pulmonary arterial pressure (pulmonary hypertension): lowering the increase in pulmonary vascular resistance and pulmonary arterial pressure

Question: For `COc1ccccc1Oc1c(NS(=O)(=O)c2ccc(C(C)(C)C)cc2)nc(-c2ncccn2)nc1OCCO` [Bosentan], which “ET-1-induced changes in gastric mucosal hemodynamics and ET-1-induced gastric ulceration” value [2] is on record?
Answer: The value was “antagonist toward the ET-1-induced changes in gastric mucosal hemodynamics as well as on ET-1-induced gastric ulceration”.

Question: And the “efficacy in models of acute renal ischemia” value (acute renal ischemia)?
Answer: The value was “effective in models of acute renal ischemia”.

Question: What about the cardiac performance (chronic heart failure) of the same compound?
Answer: The cardiac performance was “improve cardiac performance”.

Question: What about the “increase in pulmonary vascular resistance and pulmonary arterial pressure” value (pulmonary hypertension) of the same compound?
Answer: The value was “lowering the increase in pulmonary vascular resistance and pulmonary arterial pressure”.

Question: For `COc1ccc(C(=O)/C(Cc2cc(OC)c(OC)c(OC)c2)=C(/C(=O)O)c2ccc3c(c2)OCO3)cc1` [Example 1, (E)-2-Benzo[1,3]dioxol-5-yl-4-(4-methoxy-phenyl)-4-oxo-3-(3,4,5-trimethoxy-benzyl)-but-2-enoic acid], which IC50 (human ETB R) is on record?
Answer: The IC50 was > 2500 nM.

Question: And the IC50 (human ETA R)?
Answer: Its IC50 is 65 nM.

Question: For `COc1ccc(/C(C(=O)O)=C(/Cc2ccc3c(c2)OCO3)C(=O)c2cc(OC)c(OC)c(OC)c2)cc1` [Example 2, (E)-3-Benzo[1,3]dioxol-5-ylmethyl-2-(4-methoxy-phenyl)-4-oxo-4-(3,4,5-trimethoxy-phenyl)-but-2-enoic acid], which IC50 (human ETB R) is on record?
Answer: The IC50 was 10000 nM.

Question: What about the IC50 (human ETA R) of the same compound?
Answer: Its IC50 is 58 nM.

Question: With `CCOc1ccc(C(=O)/C(Cc2cc(OC)c(OC)c(OC)c2)=C(/C(=O)O)c2cc(OC)c3c(c2)OCO3)cc1C` [Example 3] as the compound, how does the IC50 (human ETB R) read?
Answer: The IC50 was > 2500 nM.

Question: What about the IC50 (human ETA R) of the same compound?
Answer: Its IC50 is 70 nM.

Question: With `COc1ccc(C2(O)OC(=O)C(c3ccc4c(c3)OCO4)=C2Cc2ccccc2)cc1` (stereo not drawn) [PD 155080] as the compound, how does the “prostate smooth muscle function” value (prostate smooth muscle) read?
Answer: Its value is “mediate prostate smooth muscle function in vivo”.

Question: Which results are given for `COc1ccc(C2(O)OC(=O)C(c3ccc4c(c3)OCO4)=C2Cc2cc(OC)c(OC)c(OC)c2)cc1` (stereo not drawn) [PD 156707]?
Answer: volume of ischemic damage in the cerebral hemisphere [3]: significantly reduced; increase in pulmonary vascular resistance and pulmonary arterial pressure (pulmonary hypertension): lowering the increase in pulmonary vascular resistance and pulmonary arterial pressure

Question: For `COc1cccc(Oc2c(NS(=O)(=O)c3ccc(C(C)(C)C)cc3)ncnc2OCCO)c1` [Ro 46-2005], which “systemic arterial blood pressure” value (early cerebral vasospasm [4]) is on record?
Answer: Its value is “no significant effect on systemic arterial blood pressure”.

Question: With `CCCOc1ccc2c(c1)[C@@H](c1ccc(OC)cc1OCC(=O)O)[C@H](C(=O)O)[C@H]2c1ccc2c(c1)OCO2` [SB 209670] as the compound, how does the neointima formation (neointima formation) read?
Answer: Its neointima formation is “ameliorate neointima formation”.

Question: Which “vasoconstriction of the basilar artery” value [5] does the source give for FR 139317 here?
Answer: The value was “significantly inhibited the vasoconstriction of the basilar artery”.

Question: Which “small intestinal mucosal damage” value (small intestinal mucosa) does the source give for endothelin here?
Answer: The value was “induce small intestinal mucosal damage in rats in a dose-dependent manner”.

Question: What about the “hepatic vasculature vasoconstriction and hepatic glucose output” value (liver) of the same compound?
Answer: The value was “sustained vasoconstriction of the hepatic vasculature and a significant increase in hepatic glucose output”.

Question: What about the “vasoconstrictor action on isolated cerebral arterioles” value [6] of the same compound?
Answer: Its value is “potent vasoconstrictor action”.
